Reference: patent US7326684B2, “Peptides for enhancing resistance to microbial infections” (priority 2002, dated 2008)
Where two headings read alike, the source gives them in different places. *1 amine or outer side, *2 acyl side, *3 side chain or, on linkers, in order; H or OH if unused. Where a SMILES comes first, the peptide text is derived from it. Where no end group is shown, it is not given here. [ ]: non-standard residue; d: D form. Tyr(3-125I) = 3-[125I]iodotyrosine, O=C([C@H](Cc1ccc(O[*:3])c([125I])c1)N[*:1])[*:2]; Tyr(3-I) = N[C@@H](Cc1ccc(O)c(I)c1)C(=O)O

Tests used:
[1] = molecular target: non-opioid receptors for β-endorphin on T lymphocytes; assay type: binding, human; settings: for Ki: read-out: Ki, inhibition of [125I]β-endorphin binding
[2] = tested on: T lymphocytes from the blood of healthy donors; experiment: Con A-induced proliferation of T lymphocytes; assay type: cell-based, human
[3] = mouse, in vivo
[4] = molecular target: high-affinity (non-opioid) β-endorphin receptors on murine peritoneal macrophages; settings: read-out: Ki, inhibition of [125I]β-endorphin binding to non-opioid receptors
[5] = molecular target: non-opioid receptors for β-endorphin on T lymphocytes; assay type: binding, human
[6] = tested on: mouse peritoneal macrophages infected with S. typhimurium 415; experiment: Phagocytosis (digestion) of S. typhimurium 415 by mouse peritoneal macrophages in vitro; settings: for Time within which phagocytes completely digested the captured microbes: peptide 1 nM; for BCA, bacterial cytocidal activity, percentage of phagocytes destroyed by intracellular bacteria / PA, phagocytic activity, percentage of macrophages participating in phagocytosis / PN, phagocytic number, average number of microbes per macrophage: tuftsin 100 nM, ± SEM
in vivo = settings: BCA, mouse, ip
[7] = tested on: mouse peritoneal macrophages infected with S. typhimurium 415; experiment: Combined action of streptomycine and peptide on digestion of S. typhimurium 415 by mouse peritoneal macrophages in vitro; settings: streptomycine 50 μg/ml alone or 10 μg/ml + peptide 1 nM
[8] = molecular target: non-opioid (naloxone-insensitive) receptors for β-endorphin on T lymphocytes from normal human blood (human); experiment: radioligand saturation binding on human T lymphocytes, Scatchard plot, in the absence of naloxone
[9] = molecular target: non-opioid (naloxone-insensitive) receptors for β-endorphin on T lymphocytes from normal human blood (human); experiment: radioligand saturation binding on human T lymphocytes, Scatchard plot, in the presence of naloxone
[10] = molecular target: non-opioid (naloxone-insensitive) receptors for β-endorphin on T lymphocytes from normal human blood (human); experiment: displacement of 1 nM [125I]β-endorphin from human T lymphocytes; Ki=IC50/(1+[L]/Kd)
[11] = molecular target: non-opioid (naloxone-insensitive) receptors for β-endorphin on T lymphocytes from normal human blood (human); experiment: radioligand saturation binding on human T lymphocytes, Scatchard analysis, one-site model
[12] = molecular target: non-opioid (naloxone-insensitive) receptors for β-endorphin on T lymphocytes from normal human blood (human); experiment: radioligand saturation binding on human T lymphocytes, 4 °C, Scatchard analysis
[13] = T lymphocytes of healthy donors
[14] = read-out: Kd of labeled peptide binding to T lymphocytes
[15] = phagocytosis time 1 h, pentarphin, cyclopentarphin 1 nM
[16] = phagocytosis time 2 h, pentarphin, cyclopentarphin 1 nM
[17] = phagocytosis time 4 h, pentarphin, cyclopentarphin 1 nM
[18] = phagocytosis time 7 h, pentarphin, cyclopentarphin 1 nM
[19] = phagocytosis time 12 h, pentarphin 1 nM

H-LTCLVKGFY-OH
Ki [1]: 1 nM

SLTCLVKGFY [immunorphin]
Effect on Con A-induced proliferation of T lymphocytes [2, 13]: stimulate

H-VKGFY-OH [Pentarphin, Val-Lys-Gly-Phe-Tyr]
Immunogenicity [3]: No immunogenicity
Ki [1]: 15 nM
Effect on Con A-induced proliferation of T lymphocytes [2]: stimulate
Stimulating effect on T lymphocyte proliferation in presence of naloxone [2]: not inhibited by naloxone
Ki [4]: 12 nM
Kd [5, 14]: 36.3 ± 0.5 nM
Time within which phagocytes completely digested the captured microbes [6]: ≤ 12 h
BCA, bacterial cytocidal activity, percentage of phagocytes destroyed by intracellular bacteria [6, 15]: 1.08 ± 0.71%
PA, phagocytic activity, percentage of macrophages participating in phagocytosis [6, 15]: 84.08 ± 2.12%
PN, phagocytic number, average number of microbes per macrophage [6, 15]: 7.11 ± 0.15 n
BCA, bacterial cytocidal activity, percentage of phagocytes destroyed by intracellular bacteria [6, 16]: 1.55 ± 0.65%
PA, phagocytic activity, percentage of macrophages participating in phagocytosis [6, 16]: 89.15 ± 1.78%
PN, phagocytic number, average number of microbes per macrophage [6, 16]: 9.29 ± 0.74 n
BCA, bacterial cytocidal activity, percentage of phagocytes destroyed by intracellular bacteria [6, 17]: 9.32 ± 1.32%
PA, phagocytic activity, percentage of macrophages participating in phagocytosis [6, 17]: 66.82 ± 1.14%
PN, phagocytic number, average number of microbes per macrophage [6, 17]: 6.02 ± 0.66 n
PA, phagocytic activity, percentage of macrophages participating in phagocytosis [6, 18]: 23.31 ± 0.84%
PN, phagocytic number, average number of microbes per macrophage [6, 18]: 1.03 ± 0.24 n
BCA, bacterial cytocidal activity, percentage of phagocytes destroyed by intracellular bacteria [6, 19]: 2.35 ± 1.21%
PA, phagocytic activity, percentage of macrophages participating in phagocytosis [6, 19]: 3.73 ± 0.64%
PN, phagocytic number, average number of microbes per macrophage [6, 19]: 0.66 ± 0.12 n
LD50 (in vivo): 2500 mg/kg

[Met^5]enkephalin [Met-enkephalin, reference compound]
Inhibition of β-endorphin binding in displacement assay [1]: not inhibited
Effect on Con A-induced proliferation of T lymphocytes [2]: not active

H-TCLVKGFY-OH
Ki [1]: 2.2 nM

H-LVKGFY-OH [H-LVKGFY-OH]
Ki [1]: 8 nM

CC(C)[C@H](N)C(=O)N[C@@H](CCCCN)C(=O)NCC(=O)N[C@@H](Cc1ccccc1)C(=O)N[C@@H](Cc1ccc(O)c(I)c1)C(=O)O [[^125I]-H-VKGFY-OH] (H-VKGF[Tyr(3-I)]-OH)
Kd [5, 14]: 36.3 ± 0.5 nM

CC(C)C[C@H](NC(=O)[C@H](CS)NC(=O)[C@@H](NC(=O)[C@H](CC(C)C)NC(=O)[C@@H](N)CO)[C@@H](C)O)C(=O)N[C@H](C(=O)N[C@@H](CCCCN)C(=O)NCC(=O)N[C@@H](Cc1ccccc1)C(=O)N[C@@H](Cc1ccc(O)c(I)c1)C(=O)O)C(C)C [[^125I]-immunorphin] (H-SLTCLVKGF[Tyr(3-I)]-OH)
Kd [5, 14]: 7 ± 0.3 nM
Kd ([5]; read-out: Kd of labeled peptide binding to T lymphocytes in the presence of naloxone): 7.4 ± 0.2 nM

C=CCN1CC[C@]23c4c5ccc(O)c4O[C@H]2C(=O)CC[C@@]3(O)[C@H]1C5 [naloxone]
Effect on Con A-induced proliferation of T lymphocytes [2, 13]: not active

[H]/N=C(/N)N[C@H]1[C@H](O)[C@@H](O)[C@H](O[C@@H]2O[C@@H](C)[C@](O)(C=O)[C@H]2O[C@@H]2O[C@@H](CO)[C@H](O)[C@@H](O)[C@@H]2NC)[C@@H](N/C(N)=N\[H])[C@@H]1O [Streptomycine]
BCA, bacterial cytocidal activity ([7]; phagocytosis time 1 h, ± SEM): 1.04 ± 0.32%
PA, phagocytic activity ([7]; phagocytosis time 1 h, ± SEM): 86.45 ± 2.13%
PN, phagocytic number ([7]; phagocytosis time 1 h, ± SEM): 8.56 ± 0.76 n
BCA, bacterial cytocidal activity ([7]; phagocytosis time 2 h, ± SEM): 1.12 ± 0.74%
PA, phagocytic activity ([7]; phagocytosis time 2 h, ± SEM): 96.17 ± 1.76%
PN, phagocytic number ([7]; phagocytosis time 2 h, ± SEM): 2.03 ± 0.46 n
BCA, bacterial cytocidal activity ([7]; phagocytosis time 4 h): 0%
PA, phagocytic activity ([7]; phagocytosis time 4 h): 0%
PN, phagocytic number ([7]; phagocytosis time 4 h): 0 n

Thr-Lys-Pro-Arg (TKPR; printed: Thr-Lys-Pro-Arg) [Tuftsin, reference compound]
BCA, bacterial cytocidal activity, percentage of phagocytes destroyed by intracellular bacteria [6, 15]: 1.41 ± 0.27%
PA, phagocytic activity, percentage of macrophages participating in phagocytosis [6, 15]: 66.07 ± 1.82%
PN, phagocytic number, average number of microbes per macrophage [6, 15]: 5.84 ± 0.27 n
BCA, bacterial cytocidal activity, percentage of phagocytes destroyed by intracellular bacteria [6, 16]: 8.12 ± 0.99%
PA, phagocytic activity, percentage of macrophages participating in phagocytosis [6, 16]: 74.11 ± 1.42%
PN, phagocytic number, average number of microbes per macrophage [6, 16]: 7.31 ± 0.25 n
BCA, bacterial cytocidal activity, percentage of phagocytes destroyed by intracellular bacteria [6, 17]: 29.34 ± 0.75%
PA, phagocytic activity, percentage of macrophages participating in phagocytosis [6, 17]: 61.97 ± 1.18%
PN, phagocytic number, average number of microbes per macrophage [6, 17]: 6.29 ± 0.48 n
BCA, bacterial cytocidal activity, percentage of phagocytes destroyed by intracellular bacteria [6, 18]: 31.46 ± 1.23%
PA, phagocytic activity, percentage of macrophages participating in phagocytosis [6, 18]: 38.48 ± 0.23%
PN, phagocytic number, average number of microbes per macrophage [6, 18]: 3.32 ± 0.56 n
BCA, bacterial cytocidal activity, percentage of phagocytes destroyed by intracellular bacteria [6, 19]: 7.64 ± 1.38%
PA, phagocytic activity, percentage of macrophages participating in phagocytosis [6, 19]: 9.31 ± 0.29%
PN, phagocytic number, average number of microbes per macrophage [6, 19]: 1.36 ± 0.86 n
Activity, times lower than pentarphin/cyclopentarphin ([6]; tuftsin acted the same way at 100 nM versus 1 nM): 100 times

[125I]-immunorphin (peptide)
Kd [8]: 7 nM
Kd [9]: 7.4 nM

immunorphin (H-…-OH) (peptide)
Ki [10]: 0.6 nM

H-CLVKGFY-OH [H-CLVKGFY-OH]
Ki [1]: 3.4 nM

cyclo(Val-Lys-Gly-Phe-Tyr) (VKGFY; cyclic; printed: Val-Lys-Gly-Phe-Tyr) [Cyclopentarphin]
Time within which phagocytes completely digested the captured microbes [6]: ≤ 7 h
BCA, bacterial cytocidal activity, percentage of phagocytes destroyed by intracellular bacteria [6, 15]: 1.25 ± 0.64%
PA, phagocytic activity, percentage of macrophages participating in phagocytosis [6, 15]: 87.81 ± 3.14%
PN, phagocytic number, average number of microbes per macrophage [6, 15]: 7.78 ± 0.39 n
BCA, bacterial cytocidal activity, percentage of phagocytes destroyed by intracellular bacteria [6, 16]: 1.06 ± 0.49%
PN, phagocytic number, average number of microbes per macrophage [6, 16]: 8.81 ± 0.27 n
BCA, bacterial cytocidal activity, percentage of phagocytes destroyed by intracellular bacteria [6, 17]: 2.13 ± 0.60%
PA, phagocytic activity, percentage of macrophages participating in phagocytosis [6, 17]: 57.43 ± 2.01%
PN, phagocytic number, average number of microbes per macrophage [6, 17]: 5.32 ± 0.51 n
BCA, bacterial cytocidal activity, percentage of phagocytes destroyed by intracellular bacteria [6, 18]: 2.22 ± 1.31%
PA, phagocytic activity, percentage of macrophages participating in phagocytosis [6, 18]: 1.74 ± 0.44%
PN, phagocytic number, average number of microbes per macrophage [6, 18]: 0.27 ± 0.20 n

B1: H-CLVKGFY-OH (peptide)
peptide: H-CLVKGFY-OH
Ki [10]: 3.4 nM

B2: [125I]-H-VKGFY-OH (peptide)
peptide: H-VKGFY-OH
modifications: also: 125I label, residue not given here
Kd [11]: 36.3 nM

B3: H-…-OH (peptide)
peptide: H-LTCLVKGFY-OH
Ki [10]: 1 nM

B4: (3-[125I]iodotyrosyl27)β-endorphin (peptide)
peptide: YGGFMTSEKSQTPLVTLFKNAIIKNA[Tyr(3-125I)]KKGE
Kd [12]: 0.25 nM

B5: H-LVKGFY-OH (peptide)
peptide: H-LVKGFY-OH
Ki [10]: 8 nM

B6: H-TCLVKGFY-OH (peptide)
peptide: H-TCLVKGFY-OH
Ki [10]: 2.2 nM

B7: pentarphin (H-VKGFY-OH) (peptide)
peptide: H-VKGFY-OH
Ki [10]: 15 nM
